Target: T1, Peroxisome proliferator-activated receptor alpha (Homo sapiens, UniProt Q07869)
T1 sequence (Q07869 whole entry): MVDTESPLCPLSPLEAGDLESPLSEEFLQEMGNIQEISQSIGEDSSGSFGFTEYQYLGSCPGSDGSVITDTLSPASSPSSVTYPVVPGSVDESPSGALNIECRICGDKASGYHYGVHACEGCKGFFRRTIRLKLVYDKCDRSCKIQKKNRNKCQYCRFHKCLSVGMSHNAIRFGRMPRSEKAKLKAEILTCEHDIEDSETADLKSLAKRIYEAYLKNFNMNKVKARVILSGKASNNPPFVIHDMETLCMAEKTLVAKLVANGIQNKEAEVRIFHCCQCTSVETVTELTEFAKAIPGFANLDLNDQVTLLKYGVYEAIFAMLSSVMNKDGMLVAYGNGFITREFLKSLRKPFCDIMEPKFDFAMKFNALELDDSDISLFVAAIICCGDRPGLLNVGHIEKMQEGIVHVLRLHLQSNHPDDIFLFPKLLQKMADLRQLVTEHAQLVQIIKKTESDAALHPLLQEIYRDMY
Assay: Inhibition of PPARalpha receptor

## CCC(=O)NC[C@H](Cc1ccc(OCCc2nc(-c3ccccc3)oc2C)cc1)N/C(C)=C\C(=O)c1ccc(C(F)(F)F)cc1
  IC50: 240 nM

Reference: ChEMBL document CHEMBL1138491, “An innovative method to study target protein-drug interactions by mass spectrometry” (J Med Chem, 2009)
